{"source": "patent US20210332024A1", "about": "“MODULATORS OF PIN1 ACTIVITY AND USES THEREOF” (Yeda Research and Development Co. Ltd., priority 2019, published 2021)", "key": {"MDA-MB-231 cells": {"tested_on": "MDA-MB-231 cells", "assay": "Cell viability assay (CellTiter-Glo)", "format": "cell-based", "conditions": "Homo sapiens; cell viability assay with MDA-MB-231 cells", "description": "MDA-MB-231 cells grew in DMEM medium supplemented with 10% FCS (fetal calf serum), 1% PS (penicillin-streptomycin) and 1% L-glutamine (all from Biological Industries). Exclusion of mycoplasma contamination was monitored and conducted by test with MycoAlert™ kit (Lonza). Cells were trypsinized and counted, and 1000 cells/well were plated in 50 μl of growth medium into 384-well white TC plates (Greiner) using Multidrop™ 384 (Thermo Scientific) Washer Dispenser II. The number of viable cells was monitored using CellTiter-Glo® Luminescent kit (Promega) in accordance with the manufacturer's protocol. Luminescence was measured using luminescence module of PHERAstar™ FS plate reader (BMG Labtech). Data analysis was performed using GeneData 12 analytic software. Assay ready plate preparation: Compounds transferred into black microplates (Greiner 784900) using Labcyte Echo® acoustic dispensing technology. Assay ready plates were then sealed with heat seals. If not used immediately, plates were frozen at −20° C. and held in polypropylene boxes with silica-gel desiccant.\nExemplary Pin1-binding compounds were also tested for non-selective cytotoxicity in a viability assay against IMR90 lung fibroblasts."}, "[1]": {"tested_on": "Kuramochi ovarian carcinoma cells", "assay": "Prolonged-treatment cell growth, Kuramochi", "format": "cell-based", "conditions": "1 or 2.5 μM", "description": "The ability of Pin1-3 treatment to induce more pronounced anti-proliferative effects after prolonged treatment (6-8 days) was then assessed. In order to ensure that target engagement was maintained for the duration of the experiment, Pin1-3 was replenished in fresh media every 48 hours."}, "[2]": {"tested_on": "MYCN-overexpressing PSNS neuroblasts", "assay": "Zebrafish embryo model of MYCN-driven neuroblastoma", "format": "in vivo", "source_text": "Zebrafish were used for a model of childhood neuroblastoma, in which the tissue-specific overexpression of the human MYCN transgene using the dopamine β hydroxylase (dβh) promoter in the zebrafish peripheral sympathetic nerve system (PSNS) drives neuroblastoma tumorigenesis in zebrafish [Zhu et al., Cancer Cell 2012, 21:362-373]. The fish are also transgenic for a PSNS-specific dβh:EGFP reporter line, so that the tumors can be visualized by EGFP. In this model, hyperproliferation of sympathetic neuroblasts is evident in the […] (counterpart of the adrenal medulla) starting at 4 days post-fertilization (dpf).\nZebrafish embryos at 3 dpf were treated with different concentrations of the test compound in the egg water (reverse osmosis or RO water with 0.6 gm/liter instant ocean salts) for 4 days. The embryos were transferred to egg water containing freshly diluted drug after 2 days (5 dpf). The embryos were then imaged at 7 dpf, and the relative EGFP+MYCN-overexpressing neuroblast cross-sectional area for each experimental group was quantified.\nThe effect of Pin1-binding […] on neuroblastoma cells was assessed using a zebrafish embryo model of neuroblastoma, using procedures described in the Materials and Methods section hereinabove. Neuroblastoma is a pediatric malignancy derived from the peripheral sympathetic nervous system (PSNS). […] Overexpression of the MYCN oncogene, which is the oncogenic driver in approximately 20% of human high-risk neuroblastomas, in the PSNS of Tg(dβh:MYCN;dβh:EGFP) transgenic zebrafish, causes the fish to develop neuroblast hyperplasia (as shown, for example, in FIG. 42), which rapidly progress into fully transformed tumors that faithfully resemble human high-risk neuroblastoma [Zhu et al., Cancer Cell 2012, 21:362-373; He et al., Elife 2016, 5; Zimmerman et al., Cancer Discov 2016, 8:320-335]."}, "[3]": {"assay": "Pharmacokinetics, oral administration", "format": "in vivo, Male C57Bl/6J mice", "conditions": "for AUC(0-inf): read-out: AUCINF obs. (converted)", "description": "Male C57Bl/6J mice received Pin1-3 intravenously (as a 0.2 mg/ml solution in 5/5/90 NMP/Solutol/saline) or orally (as a 1 mg/ml solution in 5/5/90 NMP/Solutol/saline). The intravenous dosage was 2 mg/kg and the oral dosage was 10 mg/kg."}, "[4]": {"biological_target": "cysteine targets throughout the proteome, MDA-MB-231 cells (Homo sapiens, UniProt Q13526)", "sequence (Q13526 whole entry)": "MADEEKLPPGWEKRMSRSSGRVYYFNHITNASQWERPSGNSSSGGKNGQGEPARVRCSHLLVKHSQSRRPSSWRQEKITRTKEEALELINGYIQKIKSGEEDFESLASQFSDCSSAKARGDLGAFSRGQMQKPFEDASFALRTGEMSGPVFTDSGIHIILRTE", "assay": "rdTOP-ABPP profiling of reactive cysteines", "conditions": "5 μM, two biological replicates"}, "[5]": {"tested_on": "cysteine targets throughout the proteome, MDA-MB-231 cells", "assay": "rdTOP-ABPP profiling of reactive cysteines", "conditions": "5 μM"}, "[6]": {"conditions": "male, C57Bl/6J, mouse, in vivo, po, 10 mg/kg, oral 10 mg/kg, Avg. of 3 mice"}, "[7]": {"conditions": "male, C57Bl/6J, mouse, in vivo, po, 10 mg/kg, oral 10 mg/kg, individual mice No. 1-3"}, "[8]": {"conditions": "oral 10 mg/kg, individual mice No. 1-3, 10 mg/kg"}}, "note": "Several values for one entry are separate records, joined by “and”; a condition that tells them apart may be missing. Equal values may be shown once. Read-outs that look alike come from different tables or passages of the source."}
{"smiles": "CC(C)(C)CN(C(=O)CCl)C1CCS(=O)(=O)C1", "note": "(stereo not drawn) [Pin1-3, 2-chloro-N-(sulfolan-3-yl)-N-neopentylacetamide]", "values": [{"measurement": "EC50", "setting": "MDA-MB-231 cells", "value": "> 25", "unit": "µM"}, {"measurement": "Cell growth", "setting": "[1]", "value": "long-term inhibition"}, {"measurement": "Cross-section of the EGFP-expressing PSNS cells", "setting": "[2]; 100 μM for 4 days", "value": "indistinguishable from that of controls without hyperproliferation"}, {"measurement": "Toxicity in embryos", "setting": "[2]; 25 to 100 μM in the egg water", "value": "no evidence of toxicity"}, {"measurement": "Hyperproliferation of MYCN-overexpressing PSNS neuroblasts", "setting": "[2]; 25 to 100 μM in the egg water, 3 to 7 dpf", "value": "suppressed the hyperproliferation of MYCN-overexpressing PSNS neuroblasts"}, {"measurement": "AUC(0-t)", "setting": "[3]; [6]", "value": "9210 ng·h/mL and 32.8 µM·h"}, {"measurement": "Tmax", "setting": "[3]; [6]", "value": 25.2, "unit": "min"}, {"measurement": "half-life", "setting": "[3]; [6]", "value": 49.2, "unit": "min"}, {"measurement": "AUC(0-inf)", "setting": "[3]; [6]", "value": 9230, "unit": "ng·h/mL"}, {"measurement": "Cmax", "setting": "[3]; male, C57Bl/6J, mouse, in vivo, po, 10 mg/kg, oral 10 mg/kg, Avg. of 3 mice, read-out: Cmax", "value": "11.5 µM and 3220 ng/mL"}, {"measurement": "AUC(0-t)", "setting": "[3]; [7]", "value": "9590 ng·h/mL and 34.1 µM·h"}, {"measurement": "Tmax", "setting": "[3]; [7]", "value": 15, "unit": "min"}, {"measurement": "half-life", "setting": "[3]; [7]", "value": 38.4, "unit": "min"}, {"measurement": "AUC(0-inf)", "setting": "[3]; [7]", "value": 9600, "unit": "ng·h/mL"}, {"measurement": "Cmax", "setting": "[3]; male, C57Bl/6J, mouse, in vivo, po, 10 mg/kg, oral 10 mg/kg, individual mice No. 1-3, read-out: Cmax", "value": "4050 ng/mL and 14.4 µM"}, {"measurement": "bioavailability", "setting": "[3]; male, C57Bl/6J, mouse, in vivo, oral 10 mg/kg vs intravenous 2 mg/kg, Avg., read-out: F % (oral bioavailability)", "value": 30.4, "unit": "%"}, {"measurement": "AUC % extrap.", "setting": "[3]; oral 10 mg/kg, Avg. of 3 mice", "value": 0.24, "unit": "%"}, {"measurement": "Cl obs.", "setting": "[3]; oral 10 mg/kg, Avg. of 3 mice", "value": 18.15, "unit": "mL/min/kg"}, {"measurement": "AUC % extrap.", "setting": "[3]; [8]", "value": "0.03% and 0.32% and 0.38%"}, {"measurement": "AUCINF obs.", "setting": "[3]; [8]", "value": "498172 ng·min/mL and 587646 ng·min/mL"}, {"measurement": "AUClast", "setting": "[3]; [8]", "value": "496559 min*ng/ml and 29.4 hr*μM and 585438 min*ng/ml and 34.7 hr*μM"}, {"measurement": "Cl obs.", "setting": "[3]; [8]", "value": "17.37 mL/min/kg and 20.07 mL/min/kg and 17.02 mL/min/kg"}, {"measurement": "Cmax", "setting": "[3]; [8]", "value": "2420 ng/mL and 3200 ng/mL"}, {"measurement": "T1/2", "setting": "[3]; [8]", "value": "54.6 min and 55.2 min"}, {"measurement": "Cmax", "setting": "[3]; oral 10 mg/kg, individual mice No. 1-3, 10 mg/kg, read-out: Cmax", "value": "8.61 µM and 11.4 µM"}, {"measurement": "Competition ratio R, Cys113 of Pin1", "setting": "[4]", "value": 15}, {"measurement": "Competition ratio R, all other identified cysteines", "setting": "[5]", "value": "below 2.5"}]}
